PubChem BioAssay (NCI)
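Five concentrations, 48 hours, 96-well plates. TGI denotes the concentration required for complete inhibition of growth.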

What was measured:
Test in all cases: NCI-60 cell line screen, 48 h
TK-10 renal = system: TK-10 renal
OVCAR-8 ovarian = system: OVCAR-8 ovarian
MDA-MB-231 breast = system: MDA-MB-231 breast
HOP-62 NSCLC = system: HOP-62 NSCLC
SR leukemia = system: SR leukemia
EKVX NSCLC = system: EKVX NSCLC
SN12C renal = system: SN12C renal
NCI-H460 lung = system: NCI-H460 lung
UO-31 renal = system: UO-31 renal
BT-549 breast = system: BT-549 breast
MDA-MB-435 = system: MDA-MB-435
IGROV1 ovarian = system: IGROV1 ovarian
SF-268 CNS = system: SF-268 CNS
SK-MEL-2 melanoma = system: SK-MEL-2 melanoma
RXF 393 renal = system: RXF 393 renal
HCT-116 colon = system: HCT-116 colon
NCI-H522 lung = system: NCI-H522 lung
ACHN renal = system: ACHN renal
SK-MEL-5 melanoma = system: SK-MEL-5 melanoma
HS 578T breast = system: HS 578T breast
A498 renal = system: A498 renal
SF-295 CNS = system: SF-295 CNS
HT29 colon = system: HT29 colon
MDA-N = system: MDA-N
K-562 leukemia = system: K-562 leukemia
NCI-H23 lung = system: NCI-H23 lung
786-0 renal = system: 786-0 renal
NCI/ADR-RES ovarian = system: NCI/ADR-RES ovarian
KM12 colon = system: KM12 colon
UACC-62 melanoma = system: UACC-62 melanoma
MALME-3M melanoma = system: MALME-3M melanoma
HCT-15 colon = system: HCT-15 colon
SW-620 colon = system: SW-620 colon
A549 NSCLC = system: A549 NSCLC
T-47D breast = system: T-47D breast
PC-3 prostate = system: PC-3 prostate
LOX IMVI melanoma = system: LOX IMVI melanoma
SNB-19 CNS = system: SNB-19 CNS
M14 melanoma = system: M14 melanoma
MOLT-4 leukemia = system: MOLT-4 leukemia
OVCAR-4 ovarian = system: OVCAR-4 ovarian
OVCAR-3 ovarian = system: OVCAR-3 ovarian
HL-60(TB) leukemia = system: HL-60(TB) leukemia
U251 CNS = system: U251 CNS
UACC-257 melanoma = system: UACC-257 melanoma
SK-MEL-28 melanoma = system: SK-MEL-28 melanoma
NCI-H226 lung = system: NCI-H226 lung
CAKI-1 renal = system: CAKI-1 renal
OVCAR-5 ovarian = system: OVCAR-5 ovarian
HOP-92 NSCLC = system: HOP-92 NSCLC
DU-145 prostate = system: DU-145 prostate
HCC-2998 colon = system: HCC-2998 colon
RPMI-8226 leukemia = system: RPMI-8226 leukemia
SNB-75 CNS = system: SNB-75 CNS
SK-OV-3 ovarian = system: SK-OV-3 ovarian
COLO 205 colon = system: COLO 205 colon
CCRF-CEM leukemia = system: CCRF-CEM leukemia

c1ccc2c(c1)nnn2CN1CCOCC1
TGI (TK-10 renal): > 100 µM
TGI (OVCAR-8 ovarian): > 100 µM
TGI (MDA-MB-231 breast): > 100 µM
TGI (HOP-62 NSCLC): > 100 µM
TGI (SR leukemia): 54.8 µM
TGI (EKVX NSCLC): > 100 µM
TGI (SN12C renal): > 100 µM
TGI (NCI-H460 lung): > 100 µM
TGI (UO-31 renal): > 100 µM
TGI (BT-549 breast): > 100 µM
TGI (MDA-MB-435): > 100 µM
TGI (IGROV1 ovarian): > 100 µM
TGI (SF-268 CNS): > 100 µM
TGI (SK-MEL-2 melanoma): > 100 µM
TGI (RXF 393 renal): > 100 µM
TGI (HCT-116 colon): > 100 µM
TGI (NCI-H522 lung): > 100 µM
TGI (ACHN renal): > 100 µM
TGI (SK-MEL-5 melanoma): > 100 µM
TGI (HS 578T breast): > 100 µM
TGI (A498 renal): > 100 µM
TGI (SF-295 CNS): > 100 µM
TGI (HT29 colon): > 100 µM
TGI (MDA-N): > 100 µM
TGI (K-562 leukemia): > 100 µM
TGI (NCI-H23 lung): > 100 µM
TGI (786-0 renal): > 100 µM
TGI (NCI/ADR-RES ovarian): > 100 µM
TGI (KM12 colon): > 100 µM
TGI (UACC-62 melanoma): > 100 µM
TGI (MALME-3M melanoma): > 100 µM
TGI (HCT-15 colon): > 100 µM
TGI (SW-620 colon): > 100 µM
TGI (A549 NSCLC): > 100 µM
TGI (T-47D breast): > 100 µM
TGI (PC-3 prostate): > 100 µM
TGI (LOX IMVI melanoma): > 100 µM
TGI (SNB-19 CNS): > 100 µM
TGI (M14 melanoma): > 100 µM
TGI (MOLT-4 leukemia): > 100 µM
TGI (OVCAR-4 ovarian): > 100 µM
TGI (OVCAR-3 ovarian): 93.1 µM
TGI (HL-60(TB) leukemia): 63.6 µM
TGI (U251 CNS): > 100 µM
TGI (UACC-257 melanoma): > 100 µM
TGI (SK-MEL-28 melanoma): > 100 µM
TGI (NCI-H226 lung): > 100 µM
TGI (CAKI-1 renal): > 100 µM
TGI (OVCAR-5 ovarian): > 100 µM
TGI (HOP-92 NSCLC): > 100 µM

Cc1cc(OCC(=O)O)c(Cl)cc1Cl
TGI (TK-10 renal): > 100 µM
TGI (OVCAR-8 ovarian): > 100 µM
TGI (MDA-MB-231 breast): > 100 µM
TGI (HOP-62 NSCLC): > 100 µM
TGI (SR leukemia): > 100 µM
TGI (EKVX NSCLC): > 100 µM
TGI (SN12C renal): > 100 µM
TGI (NCI-H460 lung): > 100 µM
TGI (UO-31 renal): > 100 µM
TGI (BT-549 breast): > 100 µM
TGI (MDA-MB-435): > 100 µM
TGI (IGROV1 ovarian): > 100 µM
TGI (SF-268 CNS): > 100 µM
TGI (SK-MEL-2 melanoma): > 100 µM
TGI (RXF 393 renal): > 100 µM
TGI (HCT-116 colon): > 100 µM
TGI (DU-145 prostate): > 100 µM
TGI (NCI-H522 lung): > 100 µM
TGI (ACHN renal): > 100 µM
TGI (SK-MEL-5 melanoma): > 100 µM
TGI (HS 578T breast): > 100 µM
TGI (A498 renal): > 100 µM
TGI (SF-295 CNS): > 100 µM
TGI (HT29 colon): > 100 µM
TGI (MDA-N): > 100 µM
TGI (K-562 leukemia): > 100 µM
TGI (NCI-H23 lung): > 100 µM
TGI (HCC-2998 colon): > 100 µM
TGI (786-0 renal): > 100 µM
TGI (NCI/ADR-RES ovarian): > 100 µM
TGI (KM12 colon): > 100 µM
TGI (UACC-62 melanoma): > 100 µM
TGI (MALME-3M melanoma): > 100 µM
TGI (HCT-15 colon): > 100 µM
TGI (SW-620 colon): > 100 µM
TGI (A549 NSCLC): > 100 µM
TGI (T-47D breast): > 100 µM
TGI (PC-3 prostate): > 100 µM
TGI (LOX IMVI melanoma): > 100 µM
TGI (SNB-19 CNS): > 100 µM
TGI (M14 melanoma): > 100 µM
TGI (MOLT-4 leukemia): > 100 µM
TGI (OVCAR-4 ovarian): > 100 µM
TGI (OVCAR-3 ovarian): > 100 µM
TGI (RPMI-8226 leukemia): > 100 µM
TGI (HL-60(TB) leukemia): > 100 µM
TGI (U251 CNS): > 100 µM
TGI (UACC-257 melanoma): > 100 µM
TGI (SK-MEL-28 melanoma): > 100 µM
TGI (NCI-H226 lung): > 100 µM
TGI (CAKI-1 renal): > 100 µM
TGI (OVCAR-5 ovarian): > 100 µM
TGI (HOP-92 NSCLC): > 100 µM

CC(C)(C)/C(O)=C\c1nc2ccc(C(F)(F)F)cc2[nH]c1=O
TGI (TK-10 renal): > 100 µM
TGI (OVCAR-8 ovarian): > 100 µM
TGI (MDA-MB-231 breast): > 100 µM
TGI (HOP-62 NSCLC): > 100 µM
TGI (SR leukemia): > 100 µM
TGI (EKVX NSCLC): > 100 µM
TGI (SN12C renal): > 100 µM
TGI (UO-31 renal): > 100 µM
TGI (BT-549 breast): > 100 µM
TGI (MDA-MB-435): > 100 µM
TGI (IGROV1 ovarian): > 100 µM
TGI (SF-268 CNS): > 100 µM
TGI (SK-MEL-2 melanoma): > 100 µM
TGI (RXF 393 renal): > 100 µM
TGI (HCT-116 colon): > 100 µM
TGI (SNB-75 CNS): > 100 µM
TGI (DU-145 prostate): > 100 µM
TGI (NCI-H522 lung): > 100 µM
TGI (ACHN renal): > 100 µM
TGI (SK-MEL-5 melanoma): > 100 µM
TGI (SK-OV-3 ovarian): > 100 µM
TGI (HS 578T breast): > 100 µM
TGI (A498 renal): > 100 µM
TGI (SF-295 CNS): > 100 µM
TGI (HT29 colon): > 100 µM
TGI (MDA-N): > 100 µM
TGI (K-562 leukemia): > 100 µM
TGI (NCI-H23 lung): > 100 µM
TGI (786-0 renal): > 100 µM
TGI (NCI/ADR-RES ovarian): > 100 µM
TGI (KM12 colon): > 100 µM
TGI (UACC-62 melanoma): > 100 µM
TGI (MALME-3M melanoma): > 100 µM
TGI (COLO 205 colon): > 100 µM
TGI (HCT-15 colon): > 100 µM
TGI (SW-620 colon): > 100 µM
TGI (A549 NSCLC): > 100 µM
TGI (T-47D breast): > 100 µM
TGI (PC-3 prostate): > 100 µM
TGI (LOX IMVI melanoma): > 100 µM
TGI (SNB-19 CNS): > 100 µM
TGI (CCRF-CEM leukemia): > 100 µM
TGI (M14 melanoma): > 100 µM
TGI (MOLT-4 leukemia): > 100 µM
TGI (OVCAR-4 ovarian): > 100 µM
TGI (OVCAR-3 ovarian): > 100 µM
TGI (RPMI-8226 leukemia): > 100 µM
TGI (U251 CNS): > 100 µM
TGI (UACC-257 melanoma): > 100 µM
TGI (SK-MEL-28 melanoma): > 100 µM
TGI (NCI-H226 lung): > 100 µM
TGI (CAKI-1 renal): > 100 µM
TGI (OVCAR-5 ovarian): > 100 µM
TGI (HOP-92 NSCLC): > 100 µM
